Broadly, the inhibition is the drop in the measured response relative to a control, in per cent.

The assay has as its system accumulation of c-AMP by PGE2. The assay is described as follows: Antagonism of PGE2-enhanced c-AMP levels in mouse thymus cells (radioimmunoassay). It is filed as cell-based. An excerpt:
A suitable test for this purpose is based on the enhancement of cyclic AMP (adenosine-3',5'-monophosphate) levels in tissues due to adenyl cyclase stimulated by the action of prostaglandins of the PGE2 type. An exemplification of such a test used to determine the antagonist activity of the compounds of the present invention is as follows. A BC 57/BL (Jackson Laboratories) mouse is sacrificed and the thymus gland removed and teased apart to provide thymus cells which are suspended in a culture medium. The degradation of c-AMP is blocked by addition of 4-(3-butoxy-4-methoxybenzyl)-2-imidazolidinone (Hoffman-LaRoche, Ro 20-1724), a c-AMP phosphodiesterase inhibitor. A measured dose of the compound under test is added to the suspension of cells and the suspension is incubated at 37° C. for ten minutes. A measured dose of PGE2 is added to the suspension, which is then incubated for a further period of 30 minutes. The cells are then centrifuged, washed and the c-AMP extracted with ethanol. The ethanol extract is evaporated to dryness, redissolved in buffer solution and the c-AMP level determined by a radioimmunoassay, see Zimmerman et al, Anal. Biochem. 71, 79 (1976) and Steiner et al, J. Biol. Chem. 247, 1106 (1972). Comparison of the enhancement of c-AMP levels produced by PGE2 alone and by PGE2 together with the compound under test allow determination of the antagonist activity.
An example of the results from this test are those obtained with 2-(3-hydroxy-trans-1-octenyl)-3-(5-carboethoxypentyloxy)-4-pyrone. The initial c-AMP level of the cell culture was measured as 1.9 ± 0.7 picomole c-AMP/10^7 cells. Incubation with 10^-5 M PGE2 alone enhanced the level to 88 ± 7 picomole c-AMP/10^7 cells. By comparison, when the cells were incubated for ten minutes with 7 × 10^-5 M of the test compound the c-AMP level was measured at 2 ± 0.1 picomole c-AMP/10^7 cells. Following incubation for 30 minutes with 10^-5 M PGE2 the level was measured as 51 ± 5 picomole c-AMP/10^7 cells. Similarly, in a second experiment, after ten minutes incubation with 7 × 10^-6 M of the test compound, the c-AMP level was measured at 1.4 ± 0.2 picomoles c-AMP/10^7 cells; after 30 minutes incubation with 10^-5 M PGE2 the c-AMP level was measured as 69 ± 8 picomoles c-AMP/10^7 cells. […] Both of these compounds are well known in the art as prostaglandin antagonists.

On to `CCCCCCC#C[C@H]1CCC[C@@H]1OCCCCCC(=O)O` [7-oxa-13-prostynoic acid, reference compound], for which the inhibition at 100 µM (Mus musculus, concentration of 10^-4 M, same test conditions) came out at 45%. With `CCCCCC(O)/C=C/c1occc(=O)c1OCCCCCC(=O)OCC` (racemic) [2-[(3RS)-3-hydroxy-trans-1-octenyl]-3-(5-carboethoxypentyloxy)-4-pyrone], the c-AMP level runs as follows: (7 × 10^-5 M test compound, then 30 minutes with 10^-5 M PGE2 (PGE2 alone 88 ± 7)) 51 ± 5 picomole c-AMP/10^7 cells; (second experiment, 7 × 10^-6 M test compound, then 30 minutes with 10^-5 M PGE2) 69 ± 8 picomoles c-AMP/10^7 cells; (second experiment, ten minutes with 7 × 10^-6 M test compound, before PGE2) 1.4 ± 0.2 picomoles c-AMP/10^7 cells; (thymus cells incubated ten minutes with 7 × 10^-5 M test compound, before PGE2) 2 ± 0.1 picomole c-AMP/10^7 cells.

With `CC(=O)NNC(=O)N1Cc2ccccc2Oc2ccc(Cl)cc21` [SC-19220, reference compound], the inhibition at 50 µM (Mus musculus, 5 × 10^-5 M, same test conditions) stood at 30%. For the compound `CCCCC[C@H](O)/C=C/[C@H]1[C@H](O)CC(=O)[C@@H]1C/C=C\CCCC(=O)O` [PGE2, reference compound], the c-AMP level (incubation with 10^-5 M PGE2 alone (initial level 1.9 ± 0.7)) is on record as 88 ± 7 picomole c-AMP/10^7 cells.

The values are drawn from patent US4132847A, “4-Pyrone prostaglandin antagonists” (Pfizer Inc., priority 1977, dated 1979).
